Here are results for one molecule from ChEMBL document CHEMBL1132030, “Photoactivatable peptides based on BMS-197525: a potent antagonist of the human thrombin receptor (PAR-1)” (Bioorg Med Chem Lett, 1999).

The target of this experiment is T1, Proteinase-activated receptor 1 (Homo sapiens, UniProt P25116).
T1 sequence (P25116 whole entry): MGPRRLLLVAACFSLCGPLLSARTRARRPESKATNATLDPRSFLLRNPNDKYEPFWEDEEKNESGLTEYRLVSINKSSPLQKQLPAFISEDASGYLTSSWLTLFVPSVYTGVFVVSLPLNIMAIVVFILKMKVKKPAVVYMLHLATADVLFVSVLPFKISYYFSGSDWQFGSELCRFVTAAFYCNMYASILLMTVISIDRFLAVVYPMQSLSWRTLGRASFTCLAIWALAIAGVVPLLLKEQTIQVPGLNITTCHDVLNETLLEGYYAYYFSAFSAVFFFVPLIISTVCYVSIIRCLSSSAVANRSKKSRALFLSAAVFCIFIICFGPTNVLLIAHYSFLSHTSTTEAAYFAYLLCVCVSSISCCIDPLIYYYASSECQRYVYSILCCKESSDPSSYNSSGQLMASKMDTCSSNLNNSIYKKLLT
The experiment in a line: Human Thrombin receptor 1 (PAR-1) antagonistic ability to inhibit SFLLRN-NH2 (2.7 uM)-induced platelet aggregation; Not active at 110 uM concentration. The format is functional.

Where a SMILES comes first, the peptide text is derived from it. [ ]: non-standard residue; d: D form. The star is where a group is joined. Phe(4-guanidino) = N=C(N)Nc1ccc(C[C@H](N)C(=O)O)cc1; Bpa = N[C@@H](Cc1ccc(C(=O)c2ccccc2)cc1)C(=O)O; Phe(4-F) = N[C@@H](Cc1ccc(F)cc1)C(=O)O; NBD = O=[N+]([O-])c1ccc(*)c2nonc12; Orn = NCCC[C@H](N)C(=O)O; X2 = O=C(/C=C/c1ccccc1)*

With `CC(C)C[C@H](NC(=O)[C@H](Cc1ccc(NC(=N)N)cc1)NC(=O)[C@H](Cc1ccc(F)cc1)NC(=O)/C=C/c1ccccc1)C(=O)N[C@@H](Cc1ccc(C(=O)c2ccccc2)cc1)C(=O)N[C@@H](CCCNc1ccc([N+](=O)[O-])c2nonc12)C(=O)O` (X2-[Phe(4-F)][Phe(4-guanidino)]L[Bpa][Orn](NBD)-OH), the IC50 entry is recorded as “Not Active”.
